Assay results reported in article PMC12848717, “Discovery of Encrypted Peptides in a Human Matrix Metallopeptidase” (JACS Au, 2025).
Square brackets hold non-standard residues; d marks the D form. Peptide text beside a SMILES is read from it.

What was measured:
[1] = system: human primary dermal fibroblasts (HDF); type: cell-based
Procedure: (§1) Cell viability remained above 70% even at the highest tested concentrations after 72 h of incubation.

[2] = system: human immortalized keratinocytes (HaCaT); type: cell-based
Procedure: as §1

[3] = system: human epidermoid carcinoma cells (A431); type: cell-based; conditions: 72 h, 100 μM
Procedure: as §1

A. baumannii ATCC 19606 [4] = assay: murine skin abscess infection model; type: in vivo, mouse (female CD-1); conditions: after 4 days; single topical dose at MIC ([…] μM r(P)YLL19, 32 μM D(P)YLL19) 2 h postinfection; CFU of homogenized skin; n = 6
Procedure: Six-week-old female CD-1 mice (Charles River, stock number: 18679700-022) were anesthetized with isoflurane, and the dorsal skin was shaved. A superficial linear abrasion was made using a sterile needle. A 20 μL aliquot of A. baumannii ATCC 19606, grown in LB medium to an optical density at 600 nm (OD600) of 0.5 and then washed twice with sterile PBS (pH 7.4; 9391 g for 2 min), was applied to the abraded area at a final concentration of 3.67 × 10^6 CFU mL^-1. Peptides and antibiotics were diluted in sterile water to their respective MICs and topically applied to the infection site 2 h postinfection. Untreated control mice received 20 μL of sterile PBS. At 2 and 4 days postinfection, animals were euthanized, and the wounded infected skin area was aseptically and uniformly excised. Tissue was homogenized using a bead beater (25 Hz for 20 min), serially diluted 10-fold, and plated on MacConkey agar plates for CFU quantification. Each treatment group included six mice (n = 6), with mice housed individually to prevent cross-contamination. […] Two independent experiments were conducted, each with 3 mice per treatment group. Statistical significance was assessed using one-way ANOVA followed by Dunnett's post hoc test after log10 transformation of CFU counts.

[5] = system: sheep red blood cells (SRBCs)
[6] = system: S. epidermidis ATCC 35984; assay: time-kill (killing kinetic) assay; type: cell-based; conditions: Fig 7D
A. baumannii ATCC 19606 [7] = assay: time-kill (killing kinetic) assay; type: cell-based; conditions: Fig 7D

CC[C@@H](C)[C@@H](NC(=O)[C@@H](CCCNC(=N)N)NC(=O)[C@@H](Cc1ccccc1)NC(=O)[C@H](NC(=O)[C@@H](CC(C)C)NC(=O)[C@@H](Cc1c[nH]cn1)NC(=O)[C@@H](CCCCN)NC(=O)[C@@H](CCCCN)NC(=O)[C@@H](CCCNC(=N)N)NC(=O)[C@@H](Cc1c[nH]c2ccccc12)NC(=O)[C@@H](CCCNC(=N)N)NC(=O)CNC(=O)[C@@H](CC(C)C)NC(=O)[C@@H](CC(C)C)NC(=O)[C@@H](CC(C)C)NC(=O)[C@@H](Cc1ccc(O)cc1)NC(=O)[C@H]1CCCN1)[C@H](C)O)C(=O)N[C@H](CC(C)C)C(=O)N[C@H](CC(N)=O)C(=O)N[C@H](CC(C)C)C(=O)O [D(P)YLL19] (H-[dP][dY][dL][dL][dL]G[dR][dW][dR][dK][dK][dH][dL][dT][dF][dR][dI][dL][dN][dL]-OH; N-terminus and C-terminus assumed)
reduction in viability [1]: 25–30%
cell viability ([1]; 72 h, 100 μM): above 70%
reduction in viability [2]: 25–30%
cell viability ([2]; 72 h, 100 μM): above 70%
cell viability [3]: above 70%
reduction in bacterial burden (A. baumannii ATCC 19606 [4]): 3 to 4 orders of magnitude
hemolytic activity [5]: no hemolytic activity
time to complete bacterial eradication, peptide combined with colistin or polymyxin B [6]: ≤ 15 min
time to complete bacterial eradication, peptide combined with colistin (A. baumannii ATCC 19606 [7]): ≤ 15 min
